Calls of active or inactive are those of the source. No cut-off for these calls is given here.
Tests used:
[1] = Therapeutic index, ratio of CC50 for rat RBL2H3 cells to IC50 for Antiallergic activity against anti-DNP-IgE sensitized rat RBL-2H3 cells; type: toxicity; settings: read-out: TI
[2] = biological target: Proto-oncogene tyrosine-protein kinase Src (Rattus norvegicus) (UniProt Q9WUD9); assay: Inhibition of Src phosphorylation in rat RBL-2H3 cells assessed as inhibition of Fc epsilonRI-mediated signal transduction by Western blot analysis; type: cell-based; settings: dose 8-200 nM
Proto-oncogene tyrosine-protein kinase Src (Rattus norvegicus), sequence (Q9WUD9 2-536 limits assumed): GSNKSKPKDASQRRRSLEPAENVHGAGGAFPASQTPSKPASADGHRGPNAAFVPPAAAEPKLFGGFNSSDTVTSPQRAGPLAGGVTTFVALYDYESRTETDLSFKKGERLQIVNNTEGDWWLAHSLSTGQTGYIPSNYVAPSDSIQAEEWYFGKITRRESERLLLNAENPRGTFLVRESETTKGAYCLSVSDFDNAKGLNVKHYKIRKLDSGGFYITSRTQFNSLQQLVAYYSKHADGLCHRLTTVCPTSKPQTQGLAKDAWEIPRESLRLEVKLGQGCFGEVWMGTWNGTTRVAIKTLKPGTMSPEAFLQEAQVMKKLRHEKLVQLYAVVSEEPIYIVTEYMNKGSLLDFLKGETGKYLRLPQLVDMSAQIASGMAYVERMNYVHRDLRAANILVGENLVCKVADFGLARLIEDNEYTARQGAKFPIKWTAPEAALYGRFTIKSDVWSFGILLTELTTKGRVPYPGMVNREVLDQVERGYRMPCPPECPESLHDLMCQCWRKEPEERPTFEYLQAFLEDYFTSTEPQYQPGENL

RBL-2H3 = assay: Inhibition of p38 MAPK phosphorylation in rat RBL-2H3 cells assessed as inhibition of Fc epsilonRI-mediated signal transduction by Western blot analysis; type: cell-based; settings: dose 8-200 nM
[3] = Half life in BALB/c mouse at 20 mg/kg, po measured up to 24 hrs by LC-MS/MS analysis; type: ADME, organism-based; settings: in vivo
[4] = Tmax in BALB/c mouse at 20 mg/kg, po measured up to 24 hrs by LC-MS/MS analysis; type: ADME, organism-based; settings: in vivo
[5] = MRT in BALB/c mouse at 20 mg/kg, po measured up to 24 hrs by LC-MS/MS analysis; type: ADME, organism-based; settings: in vivo
[6] = Volume of distribution at steady state in BALB/c mouse at 2 mg/kg, iv measured up to 24 hrs by LC-MS/MS analysis; type: ADME, organism-based; settings: in vivo, read-out: Vdss
[7] = Oral bioavailability in BALB/c mouse at 20 mg/kg measured up to 24 hrs by LC-MS/MS analysis; type: ADME, organism-based; settings: in vivo
[8] = Half life in BALB/c mouse at 2 mg/kg, iv measured up to 24 hrs by LC-MS/MS analysis; type: ADME, organism-based; settings: in vivo
[9] = AUC (0 to t) in BALB/c mouse at 2 mg/kg, iv measured up to 24 hrs by LC-MS/MS analysis; type: ADME, organism-based; set-up: route intravenous, dose 2 mg/kg, time <=24; settings: in vivo
Mus musculus = assay: Antiallergic activity against anti-DNP IgE sensitized passive systemic anaphylaxis-induced BALB/c mouse pulmonary allergic inflammation model assessed as by decrease in body temperature drop at 40 mg/kg, po measured every 5 mins for 60 mins; type: functional, organism-based
[10] = Toxicity in anti-DNP IgE sensitized BALB/c mouse assessed as piloerection at 40 mg/kg, po; type: organism-based; settings: in vivo
[11] = Toxicity in anti-DNP IgE sensitized BALB/c mouse assessed as vomiting at 40 mg/kg, po; type: organism-based; settings: in vivo
[12] = Toxicity in anti-DNP IgE sensitized BALB/c mouse assessed as death at 40 mg/kg, po; type: organism-based; settings: in vivo
[13] = Toxicity in anti-DNP IgE sensitized BALB/c mouse assessed as splenomegaly at 40 mg/kg, po; type: organism-based; settings: in vivo
[14] = biological target: Mast/stem cell growth factor receptor Kit (Homo sapiens) (UniProt P10721); assay: Inhibition of human recombinant c-Kit at 5 nM by radiometric scintillation counting analysis relative to control
Mast/stem cell growth factor receptor Kit (Homo sapiens), sequence (P10721 whole entry): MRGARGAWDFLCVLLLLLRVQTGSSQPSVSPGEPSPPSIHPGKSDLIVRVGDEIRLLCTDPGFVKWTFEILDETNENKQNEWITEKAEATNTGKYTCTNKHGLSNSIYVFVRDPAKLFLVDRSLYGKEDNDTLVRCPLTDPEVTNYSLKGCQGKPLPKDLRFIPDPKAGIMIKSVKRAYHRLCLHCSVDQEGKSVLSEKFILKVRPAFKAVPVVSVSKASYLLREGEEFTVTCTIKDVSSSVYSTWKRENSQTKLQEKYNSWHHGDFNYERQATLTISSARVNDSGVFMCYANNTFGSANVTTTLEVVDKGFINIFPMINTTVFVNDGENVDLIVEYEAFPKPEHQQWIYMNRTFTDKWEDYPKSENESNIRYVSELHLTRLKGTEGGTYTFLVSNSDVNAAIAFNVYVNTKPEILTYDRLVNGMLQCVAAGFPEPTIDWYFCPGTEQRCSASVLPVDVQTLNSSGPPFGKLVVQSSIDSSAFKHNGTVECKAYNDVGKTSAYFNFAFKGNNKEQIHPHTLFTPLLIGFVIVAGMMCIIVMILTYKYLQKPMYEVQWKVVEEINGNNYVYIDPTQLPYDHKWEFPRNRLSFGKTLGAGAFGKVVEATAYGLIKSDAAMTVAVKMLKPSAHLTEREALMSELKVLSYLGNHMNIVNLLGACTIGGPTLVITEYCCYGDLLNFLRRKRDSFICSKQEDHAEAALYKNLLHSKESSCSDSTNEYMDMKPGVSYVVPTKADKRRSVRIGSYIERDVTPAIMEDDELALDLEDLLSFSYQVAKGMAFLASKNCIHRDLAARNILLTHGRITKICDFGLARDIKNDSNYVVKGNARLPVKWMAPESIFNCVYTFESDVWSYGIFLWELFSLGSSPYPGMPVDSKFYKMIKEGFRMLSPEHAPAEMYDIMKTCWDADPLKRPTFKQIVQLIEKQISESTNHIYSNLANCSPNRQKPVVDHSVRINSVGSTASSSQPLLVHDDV

[15] = biological target: T1, Inhibitor of nuclear factor kappa-B kinase subunit alpha (Homo sapiens) (UniProt O15111); assay: Inhibition of human full length recombinant IKKalpha at 5 nM by radiometric scintillation counting analysis relative to control
T1 sequence (whole entry): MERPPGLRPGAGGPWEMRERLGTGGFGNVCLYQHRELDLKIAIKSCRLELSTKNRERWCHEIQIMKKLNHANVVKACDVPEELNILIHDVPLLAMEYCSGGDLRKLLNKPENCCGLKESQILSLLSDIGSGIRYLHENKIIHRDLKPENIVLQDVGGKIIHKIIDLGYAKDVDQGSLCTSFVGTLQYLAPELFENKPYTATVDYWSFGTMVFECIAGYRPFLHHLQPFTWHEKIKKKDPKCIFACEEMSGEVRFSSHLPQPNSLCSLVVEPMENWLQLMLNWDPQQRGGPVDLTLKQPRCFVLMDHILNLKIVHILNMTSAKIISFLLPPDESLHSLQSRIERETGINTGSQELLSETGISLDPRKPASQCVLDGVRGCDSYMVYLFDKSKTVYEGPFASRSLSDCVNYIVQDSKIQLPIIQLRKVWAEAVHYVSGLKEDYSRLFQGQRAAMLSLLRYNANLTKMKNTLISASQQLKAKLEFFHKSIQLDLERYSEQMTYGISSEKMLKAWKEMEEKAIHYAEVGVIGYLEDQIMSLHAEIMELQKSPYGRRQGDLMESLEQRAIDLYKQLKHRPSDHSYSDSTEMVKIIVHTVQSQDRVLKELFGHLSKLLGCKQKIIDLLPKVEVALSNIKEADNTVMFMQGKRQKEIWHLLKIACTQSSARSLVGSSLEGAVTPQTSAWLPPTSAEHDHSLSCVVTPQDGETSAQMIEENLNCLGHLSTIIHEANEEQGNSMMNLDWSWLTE

[16] = biological target: T2, Cytoplasmic tyrosine-protein kinase BMX (Homo sapiens) (UniProt P51813); assay: Inhibition of human full length recombinant Bmx at 50 nM by radiometric scintillation counting analysis relative to control
T2 sequence (whole entry): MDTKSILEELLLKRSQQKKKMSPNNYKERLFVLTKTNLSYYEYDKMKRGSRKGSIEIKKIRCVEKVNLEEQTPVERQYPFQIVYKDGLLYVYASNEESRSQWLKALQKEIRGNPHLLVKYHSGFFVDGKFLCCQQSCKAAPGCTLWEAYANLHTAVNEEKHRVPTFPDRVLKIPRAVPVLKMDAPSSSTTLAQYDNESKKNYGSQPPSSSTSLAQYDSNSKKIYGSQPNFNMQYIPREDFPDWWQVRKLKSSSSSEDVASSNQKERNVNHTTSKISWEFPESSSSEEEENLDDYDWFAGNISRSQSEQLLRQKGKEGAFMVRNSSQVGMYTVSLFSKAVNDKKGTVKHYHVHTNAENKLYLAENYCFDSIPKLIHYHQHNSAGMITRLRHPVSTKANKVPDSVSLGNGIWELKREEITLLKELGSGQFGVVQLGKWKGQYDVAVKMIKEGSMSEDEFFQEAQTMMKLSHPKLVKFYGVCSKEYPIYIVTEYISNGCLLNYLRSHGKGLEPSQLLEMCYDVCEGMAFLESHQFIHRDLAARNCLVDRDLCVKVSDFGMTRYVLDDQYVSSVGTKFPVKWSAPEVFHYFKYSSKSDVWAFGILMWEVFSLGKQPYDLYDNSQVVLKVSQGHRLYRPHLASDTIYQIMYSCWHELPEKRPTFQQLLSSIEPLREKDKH

[17] = biological target: T1, Inhibitor of nuclear factor kappa-B kinase subunit alpha (Homo sapiens); assay: Inhibition of human full length recombinant IKKalpha at 50 nM by radiometric scintillation counting analysis relative to control
[18] = biological target: Tyrosine-protein kinase Blk (Homo sapiens, UniProt P51451); assay: Inhibition of human full length recombinant BLK by radiometric scintillation counting analysis
Tyrosine-protein kinase Blk, sequence (P51451 whole entry): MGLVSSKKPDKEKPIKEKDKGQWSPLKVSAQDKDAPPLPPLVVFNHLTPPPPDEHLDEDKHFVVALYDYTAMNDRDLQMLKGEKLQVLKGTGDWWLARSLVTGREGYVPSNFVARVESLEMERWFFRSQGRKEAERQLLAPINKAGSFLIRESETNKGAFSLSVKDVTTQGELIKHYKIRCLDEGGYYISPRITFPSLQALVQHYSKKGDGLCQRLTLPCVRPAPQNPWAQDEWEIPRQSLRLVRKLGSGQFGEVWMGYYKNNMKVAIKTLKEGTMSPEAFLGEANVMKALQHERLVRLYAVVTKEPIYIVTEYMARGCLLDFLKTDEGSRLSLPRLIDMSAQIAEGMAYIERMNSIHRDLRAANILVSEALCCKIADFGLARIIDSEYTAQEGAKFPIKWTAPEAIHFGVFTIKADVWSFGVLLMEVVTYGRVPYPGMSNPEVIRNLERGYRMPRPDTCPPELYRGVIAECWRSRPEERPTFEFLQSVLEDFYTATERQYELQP

[19] = biological target: Tyrosine-protein kinase Fgr (Homo sapiens, UniProt P09769); assay: Inhibition of human recombinant FGR (456 to 770) radiometric scintillation counting analysis
Tyrosine-protein kinase Fgr, sequence (P09769 whole entry): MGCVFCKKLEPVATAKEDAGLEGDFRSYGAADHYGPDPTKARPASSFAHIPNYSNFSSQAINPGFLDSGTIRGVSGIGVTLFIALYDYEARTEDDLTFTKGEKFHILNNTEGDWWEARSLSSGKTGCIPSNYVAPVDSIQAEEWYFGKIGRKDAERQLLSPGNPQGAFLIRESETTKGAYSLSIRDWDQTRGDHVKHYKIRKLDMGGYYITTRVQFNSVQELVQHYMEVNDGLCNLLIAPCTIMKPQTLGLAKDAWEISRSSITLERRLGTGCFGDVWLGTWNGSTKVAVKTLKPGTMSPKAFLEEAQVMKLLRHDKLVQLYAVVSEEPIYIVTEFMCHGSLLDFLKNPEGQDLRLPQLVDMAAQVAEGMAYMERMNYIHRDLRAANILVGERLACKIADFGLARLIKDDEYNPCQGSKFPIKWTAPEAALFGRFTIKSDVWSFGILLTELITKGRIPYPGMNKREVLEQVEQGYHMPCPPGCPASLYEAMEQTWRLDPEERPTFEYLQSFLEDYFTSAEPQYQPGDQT

[20] = biological target: Proto-oncogene tyrosine-protein kinase Src (Homo sapiens, UniProt P12931); assay: Inhibition of human recombinant Src (1-530) by radiometric scintillation counting analysis
Proto-oncogene tyrosine-protein kinase Src, sequence (P12931 2-536 limits assumed): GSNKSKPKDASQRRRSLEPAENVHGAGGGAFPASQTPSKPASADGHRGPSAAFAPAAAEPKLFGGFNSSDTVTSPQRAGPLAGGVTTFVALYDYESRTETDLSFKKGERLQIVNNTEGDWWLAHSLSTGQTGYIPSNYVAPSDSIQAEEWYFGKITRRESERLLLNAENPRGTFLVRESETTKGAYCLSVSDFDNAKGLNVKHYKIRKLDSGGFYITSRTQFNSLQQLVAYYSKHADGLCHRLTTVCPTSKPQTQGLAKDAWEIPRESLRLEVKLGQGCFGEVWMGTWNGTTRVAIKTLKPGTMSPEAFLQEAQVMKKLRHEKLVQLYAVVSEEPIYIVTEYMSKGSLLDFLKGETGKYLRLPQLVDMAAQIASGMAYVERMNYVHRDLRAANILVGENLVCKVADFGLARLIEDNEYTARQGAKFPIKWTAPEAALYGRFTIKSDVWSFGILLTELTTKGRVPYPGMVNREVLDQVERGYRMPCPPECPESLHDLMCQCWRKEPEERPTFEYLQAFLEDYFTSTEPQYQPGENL

[21] = biological target: Macrophage colony-stimulating factor 1 receptor (Homo sapiens, UniProt P07333); assay: Inhibition of human recombinant CSF1R using ATP/Ulight-TK peptide at 50 nM incubated for 15 mins
Macrophage colony-stimulating factor 1 receptor, sequence (P07333 whole entry): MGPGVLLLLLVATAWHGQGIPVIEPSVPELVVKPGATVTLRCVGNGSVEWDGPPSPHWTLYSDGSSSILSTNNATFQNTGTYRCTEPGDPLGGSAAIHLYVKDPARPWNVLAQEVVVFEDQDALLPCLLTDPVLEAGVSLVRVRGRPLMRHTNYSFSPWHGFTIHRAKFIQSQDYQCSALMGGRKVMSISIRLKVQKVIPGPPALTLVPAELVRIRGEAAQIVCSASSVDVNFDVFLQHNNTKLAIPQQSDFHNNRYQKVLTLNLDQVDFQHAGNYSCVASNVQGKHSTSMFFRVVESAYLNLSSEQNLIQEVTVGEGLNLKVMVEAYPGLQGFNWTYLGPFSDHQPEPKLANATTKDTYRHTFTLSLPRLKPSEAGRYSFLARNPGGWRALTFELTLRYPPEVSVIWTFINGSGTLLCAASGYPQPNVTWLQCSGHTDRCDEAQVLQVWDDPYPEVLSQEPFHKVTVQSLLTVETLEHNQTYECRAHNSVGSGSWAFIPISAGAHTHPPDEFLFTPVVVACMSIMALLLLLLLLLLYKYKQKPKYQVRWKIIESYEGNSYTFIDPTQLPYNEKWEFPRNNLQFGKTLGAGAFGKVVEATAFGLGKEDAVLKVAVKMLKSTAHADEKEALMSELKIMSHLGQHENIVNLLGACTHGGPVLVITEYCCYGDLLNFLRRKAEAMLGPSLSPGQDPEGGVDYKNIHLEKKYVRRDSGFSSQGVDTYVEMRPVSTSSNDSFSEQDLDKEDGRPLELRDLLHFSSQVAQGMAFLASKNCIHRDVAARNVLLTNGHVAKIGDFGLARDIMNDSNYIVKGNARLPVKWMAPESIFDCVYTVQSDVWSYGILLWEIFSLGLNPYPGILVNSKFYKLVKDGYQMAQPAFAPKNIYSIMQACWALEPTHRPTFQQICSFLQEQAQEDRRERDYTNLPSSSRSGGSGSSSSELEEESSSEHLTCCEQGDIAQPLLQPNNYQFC

SMILES | selectivity ratio [1] | inhibition [14] [%] | inhibition [15] [%] | inhibition [16] [%] | inhibition [17] [%] | IC50 [18] [nM] | IC50 [19] [nM] | IC50 [20] [nM] | IC50 [21] [nM] | also measured
Cc1ccc(C(=O)Nc2cc(C(F)(F)F)cc(C(F)(F)F)c2)cc1C#Cc1cc(-c2cnn(C)c2)cnc1N | 148 | 7 | 9 | 24 | 3 | 56 | 41 | 12 | 48 | inhibition [2]: Dose-Dependent Effect; inhibition (RBL-2H3): Dose-Dependent Effect; half-life [3]: 6.9 h; Tmax [4]: 2.67 h; MRT [5]: 11.2 h; Vd [6]: 4 L/kg; bioavailability [7]: 99.9%; half-life [8]: 5.57 h; AUC(0-t) at 24 h [9]: 2130 ng·h/mL; Activity (Mus musculus): Active; Activity [10]: Non-Toxic; Activity [11]: Non-Toxic; Activity [12]: Non-Toxic; Activity [13]: Non-Toxic
Cc1ccc(C(=O)Nc2ccc(Cl)cc2Cl)cc1C#Cc1cc(-c2cnn(C)c2)cnc1N |  |  | 6 | 23 | 9 | > 1000 | > 1000 | 163 | 11 | 
Cc1ccc(C(=O)Nc2ccc(OC(F)(F)F)cc2)cc1C#Cc1cc(-c2cnn(C)c2)cnc1N | 16.3 | 13 |  |  |  |  |  |  |  | 
